Legend:
Conditions in all cases: Compound concentration 1000.0 nM
[1] = target: T1, Serine/threonine-protein kinase tousled-like 1 (Homo sapiens) (UniProt Q9UKI8)
T1 sequence (whole entry): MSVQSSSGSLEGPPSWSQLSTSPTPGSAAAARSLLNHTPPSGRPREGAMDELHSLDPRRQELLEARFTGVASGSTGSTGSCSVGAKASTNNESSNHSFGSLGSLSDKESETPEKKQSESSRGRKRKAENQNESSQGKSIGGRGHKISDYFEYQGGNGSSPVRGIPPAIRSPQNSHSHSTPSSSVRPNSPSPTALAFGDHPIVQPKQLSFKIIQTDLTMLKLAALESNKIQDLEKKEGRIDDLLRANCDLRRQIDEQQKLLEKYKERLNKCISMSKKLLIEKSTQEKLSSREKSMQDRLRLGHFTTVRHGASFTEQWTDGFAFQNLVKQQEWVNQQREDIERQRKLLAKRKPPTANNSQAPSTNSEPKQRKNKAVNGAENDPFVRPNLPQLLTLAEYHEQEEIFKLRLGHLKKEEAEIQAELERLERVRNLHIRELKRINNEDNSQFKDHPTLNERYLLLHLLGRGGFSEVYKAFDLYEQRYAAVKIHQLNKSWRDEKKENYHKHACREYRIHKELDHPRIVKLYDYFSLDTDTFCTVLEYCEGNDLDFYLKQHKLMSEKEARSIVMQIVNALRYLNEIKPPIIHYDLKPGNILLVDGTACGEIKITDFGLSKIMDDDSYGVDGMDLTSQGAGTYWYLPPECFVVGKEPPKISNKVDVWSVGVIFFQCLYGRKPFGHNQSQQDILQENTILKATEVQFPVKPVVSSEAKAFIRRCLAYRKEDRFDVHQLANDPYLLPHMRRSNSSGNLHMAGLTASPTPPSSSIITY

[2] = target: Phosphatidylinositol 4-kinase beta (Homo sapiens) (UniProt Q9UBF8)
[3] = target: 3-phosphoinositide-dependent protein kinase 1 (Homo sapiens) (UniProt O15530)
[4] = target: T2, Serine/threonine-protein kinase Nek2 (Homo sapiens) (UniProt P51955)
T2 sequence (whole entry): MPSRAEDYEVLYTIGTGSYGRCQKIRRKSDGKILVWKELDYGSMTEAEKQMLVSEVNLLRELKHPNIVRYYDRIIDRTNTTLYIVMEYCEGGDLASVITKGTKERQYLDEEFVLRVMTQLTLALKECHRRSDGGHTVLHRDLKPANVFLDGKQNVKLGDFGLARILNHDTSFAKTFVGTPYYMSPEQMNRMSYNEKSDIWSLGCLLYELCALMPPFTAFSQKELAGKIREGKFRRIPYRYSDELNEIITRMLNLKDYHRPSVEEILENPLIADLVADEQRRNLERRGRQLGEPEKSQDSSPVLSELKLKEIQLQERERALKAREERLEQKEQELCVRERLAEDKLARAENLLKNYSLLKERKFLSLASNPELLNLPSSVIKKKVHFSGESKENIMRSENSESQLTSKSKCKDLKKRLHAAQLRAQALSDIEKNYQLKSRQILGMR

[5] = target: Serine/threonine-protein kinase PAK 4 (Homo sapiens) (UniProt O96013)
[6] = system: Tyrosine-protein kinase ABL1 (Homo sapiens), P00519 [Y253F]
[7] = target: T3, Ephrin type-A receptor 8 (Homo sapiens) (UniProt P29322)
T3 sequence (whole entry): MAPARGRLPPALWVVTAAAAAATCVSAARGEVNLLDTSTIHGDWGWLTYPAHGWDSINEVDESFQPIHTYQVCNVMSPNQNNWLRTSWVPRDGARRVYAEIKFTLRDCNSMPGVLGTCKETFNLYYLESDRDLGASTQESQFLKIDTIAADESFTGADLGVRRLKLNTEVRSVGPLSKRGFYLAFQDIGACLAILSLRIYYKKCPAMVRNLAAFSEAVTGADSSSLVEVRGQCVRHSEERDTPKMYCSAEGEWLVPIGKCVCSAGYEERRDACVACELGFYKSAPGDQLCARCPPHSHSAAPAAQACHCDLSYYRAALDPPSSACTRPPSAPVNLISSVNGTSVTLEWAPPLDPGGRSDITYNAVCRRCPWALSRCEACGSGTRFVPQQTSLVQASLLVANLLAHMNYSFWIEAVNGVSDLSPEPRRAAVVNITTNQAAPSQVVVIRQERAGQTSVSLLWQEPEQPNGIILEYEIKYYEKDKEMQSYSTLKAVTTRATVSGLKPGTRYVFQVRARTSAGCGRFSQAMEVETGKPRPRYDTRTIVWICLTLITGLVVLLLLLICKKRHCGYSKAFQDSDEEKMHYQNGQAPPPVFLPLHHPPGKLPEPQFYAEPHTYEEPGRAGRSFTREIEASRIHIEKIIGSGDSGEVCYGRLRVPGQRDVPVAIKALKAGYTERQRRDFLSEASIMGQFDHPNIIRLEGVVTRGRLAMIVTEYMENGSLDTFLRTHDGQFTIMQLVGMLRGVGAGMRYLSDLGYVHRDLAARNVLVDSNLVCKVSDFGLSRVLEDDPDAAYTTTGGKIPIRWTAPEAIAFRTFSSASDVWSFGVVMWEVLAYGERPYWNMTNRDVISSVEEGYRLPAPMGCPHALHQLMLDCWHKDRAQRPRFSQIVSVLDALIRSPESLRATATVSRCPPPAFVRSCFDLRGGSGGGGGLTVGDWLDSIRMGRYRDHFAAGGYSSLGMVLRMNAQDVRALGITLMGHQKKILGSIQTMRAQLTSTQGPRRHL

[8] = target: Vascular endothelial growth factor receptor 3 (Homo sapiens) (UniProt P35916)
[9] = system: Hepatocyte growth factor receptor (Homo sapiens), P08581 [M1250T]
[10] = target: Serine/threonine-protein kinase 32C (Homo sapiens) (UniProt Q86UX6)
[11] = system: Receptor-type tyrosine-protein kinase FLT3 (Homo sapiens), P36888 [UNDEFINED MUTATION]
[12] = target: Serine/threonine-protein kinase TAO1 (Homo sapiens) (UniProt Q7L7X3)
Serine/threonine-protein kinase TAO1 (Homo sapiens), sequence (Q7L7X3 whole entry): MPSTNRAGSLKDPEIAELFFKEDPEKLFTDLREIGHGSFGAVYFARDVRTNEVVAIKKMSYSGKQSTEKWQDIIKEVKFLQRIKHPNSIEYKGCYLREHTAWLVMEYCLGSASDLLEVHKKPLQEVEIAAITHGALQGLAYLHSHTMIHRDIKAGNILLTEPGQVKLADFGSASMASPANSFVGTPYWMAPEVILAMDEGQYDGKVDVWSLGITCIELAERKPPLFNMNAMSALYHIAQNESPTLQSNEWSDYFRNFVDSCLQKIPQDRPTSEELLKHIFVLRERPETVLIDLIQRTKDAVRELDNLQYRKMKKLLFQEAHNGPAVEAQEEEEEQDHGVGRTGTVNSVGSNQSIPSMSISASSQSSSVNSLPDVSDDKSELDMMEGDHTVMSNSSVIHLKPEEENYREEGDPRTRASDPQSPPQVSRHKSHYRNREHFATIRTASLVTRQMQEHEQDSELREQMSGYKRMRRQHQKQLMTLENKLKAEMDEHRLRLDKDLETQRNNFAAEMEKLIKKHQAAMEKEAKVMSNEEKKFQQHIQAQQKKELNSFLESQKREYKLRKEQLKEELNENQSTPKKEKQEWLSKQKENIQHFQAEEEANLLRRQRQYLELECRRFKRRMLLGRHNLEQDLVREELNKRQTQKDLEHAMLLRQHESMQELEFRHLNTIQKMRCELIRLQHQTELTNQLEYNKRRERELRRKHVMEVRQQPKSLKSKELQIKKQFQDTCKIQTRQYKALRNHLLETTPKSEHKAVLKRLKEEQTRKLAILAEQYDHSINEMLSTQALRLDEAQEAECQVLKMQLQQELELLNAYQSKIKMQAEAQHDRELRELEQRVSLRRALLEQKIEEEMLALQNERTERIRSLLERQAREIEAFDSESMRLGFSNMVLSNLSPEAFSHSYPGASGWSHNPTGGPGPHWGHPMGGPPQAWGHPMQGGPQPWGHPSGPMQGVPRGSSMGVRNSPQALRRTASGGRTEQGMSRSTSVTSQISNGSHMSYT

Serine/threonine-protein kinase 32C (Homo sapiens), sequence (Q86UX6 whole entry): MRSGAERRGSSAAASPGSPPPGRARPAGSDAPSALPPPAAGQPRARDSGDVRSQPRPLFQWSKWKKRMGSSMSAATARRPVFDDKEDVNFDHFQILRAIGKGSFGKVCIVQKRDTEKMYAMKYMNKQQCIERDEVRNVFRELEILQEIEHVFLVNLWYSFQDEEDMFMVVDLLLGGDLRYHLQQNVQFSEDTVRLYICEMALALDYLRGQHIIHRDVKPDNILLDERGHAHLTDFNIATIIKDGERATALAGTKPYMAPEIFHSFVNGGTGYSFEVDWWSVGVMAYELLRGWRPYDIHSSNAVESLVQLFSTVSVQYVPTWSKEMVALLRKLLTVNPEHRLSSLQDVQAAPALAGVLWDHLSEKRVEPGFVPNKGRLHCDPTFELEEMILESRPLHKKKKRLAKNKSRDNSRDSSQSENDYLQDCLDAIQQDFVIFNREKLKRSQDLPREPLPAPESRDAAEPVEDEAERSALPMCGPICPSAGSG
Receptor-type tyrosine-protein kinase FLT3 (Homo sapiens), P36888 [UNDEFINED MUTATION], sequence (P36888 whole entry, looked up, change not shown): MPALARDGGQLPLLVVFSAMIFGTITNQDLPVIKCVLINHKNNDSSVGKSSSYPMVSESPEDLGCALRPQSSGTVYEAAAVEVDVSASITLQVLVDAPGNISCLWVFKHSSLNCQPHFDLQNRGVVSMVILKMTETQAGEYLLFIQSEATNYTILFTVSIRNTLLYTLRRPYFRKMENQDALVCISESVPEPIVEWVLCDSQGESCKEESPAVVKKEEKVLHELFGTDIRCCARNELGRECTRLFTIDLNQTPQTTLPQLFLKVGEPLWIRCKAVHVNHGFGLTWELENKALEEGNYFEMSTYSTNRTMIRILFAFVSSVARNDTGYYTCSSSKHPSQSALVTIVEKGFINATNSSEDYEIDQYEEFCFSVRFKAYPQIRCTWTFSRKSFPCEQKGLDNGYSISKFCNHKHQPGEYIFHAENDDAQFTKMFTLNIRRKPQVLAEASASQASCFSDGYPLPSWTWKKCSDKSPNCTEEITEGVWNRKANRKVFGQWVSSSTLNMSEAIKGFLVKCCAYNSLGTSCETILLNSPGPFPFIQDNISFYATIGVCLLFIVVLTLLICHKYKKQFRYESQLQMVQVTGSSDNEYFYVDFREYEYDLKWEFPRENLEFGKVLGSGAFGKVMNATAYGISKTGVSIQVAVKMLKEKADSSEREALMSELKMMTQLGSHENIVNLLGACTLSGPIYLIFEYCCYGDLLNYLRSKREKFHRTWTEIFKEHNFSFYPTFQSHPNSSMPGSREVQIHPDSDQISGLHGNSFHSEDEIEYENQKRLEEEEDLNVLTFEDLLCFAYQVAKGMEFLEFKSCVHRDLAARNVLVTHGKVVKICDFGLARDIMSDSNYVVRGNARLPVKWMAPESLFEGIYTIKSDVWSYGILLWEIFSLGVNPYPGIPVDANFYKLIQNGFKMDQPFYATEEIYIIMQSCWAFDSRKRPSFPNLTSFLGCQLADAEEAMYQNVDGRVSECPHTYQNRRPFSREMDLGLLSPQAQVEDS
3-phosphoinositide-dependent protein kinase 1 (Homo sapiens), sequence (O15530 whole entry): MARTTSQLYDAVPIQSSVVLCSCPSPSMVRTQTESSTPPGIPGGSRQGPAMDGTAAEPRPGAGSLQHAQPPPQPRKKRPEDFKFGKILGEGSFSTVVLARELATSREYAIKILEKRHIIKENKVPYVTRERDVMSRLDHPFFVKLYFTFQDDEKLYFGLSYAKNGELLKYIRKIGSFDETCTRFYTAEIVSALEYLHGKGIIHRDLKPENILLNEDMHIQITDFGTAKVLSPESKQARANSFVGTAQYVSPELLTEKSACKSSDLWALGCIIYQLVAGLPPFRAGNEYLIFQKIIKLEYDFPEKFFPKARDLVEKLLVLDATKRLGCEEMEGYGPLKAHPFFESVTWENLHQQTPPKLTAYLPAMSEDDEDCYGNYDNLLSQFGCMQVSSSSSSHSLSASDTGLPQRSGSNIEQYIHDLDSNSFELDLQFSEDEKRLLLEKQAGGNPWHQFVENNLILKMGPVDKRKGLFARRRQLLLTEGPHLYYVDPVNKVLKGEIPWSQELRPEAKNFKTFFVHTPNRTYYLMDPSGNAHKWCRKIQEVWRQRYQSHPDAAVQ
Phosphatidylinositol 4-kinase beta (Homo sapiens), sequence (Q9UBF8 2-816 limits assumed): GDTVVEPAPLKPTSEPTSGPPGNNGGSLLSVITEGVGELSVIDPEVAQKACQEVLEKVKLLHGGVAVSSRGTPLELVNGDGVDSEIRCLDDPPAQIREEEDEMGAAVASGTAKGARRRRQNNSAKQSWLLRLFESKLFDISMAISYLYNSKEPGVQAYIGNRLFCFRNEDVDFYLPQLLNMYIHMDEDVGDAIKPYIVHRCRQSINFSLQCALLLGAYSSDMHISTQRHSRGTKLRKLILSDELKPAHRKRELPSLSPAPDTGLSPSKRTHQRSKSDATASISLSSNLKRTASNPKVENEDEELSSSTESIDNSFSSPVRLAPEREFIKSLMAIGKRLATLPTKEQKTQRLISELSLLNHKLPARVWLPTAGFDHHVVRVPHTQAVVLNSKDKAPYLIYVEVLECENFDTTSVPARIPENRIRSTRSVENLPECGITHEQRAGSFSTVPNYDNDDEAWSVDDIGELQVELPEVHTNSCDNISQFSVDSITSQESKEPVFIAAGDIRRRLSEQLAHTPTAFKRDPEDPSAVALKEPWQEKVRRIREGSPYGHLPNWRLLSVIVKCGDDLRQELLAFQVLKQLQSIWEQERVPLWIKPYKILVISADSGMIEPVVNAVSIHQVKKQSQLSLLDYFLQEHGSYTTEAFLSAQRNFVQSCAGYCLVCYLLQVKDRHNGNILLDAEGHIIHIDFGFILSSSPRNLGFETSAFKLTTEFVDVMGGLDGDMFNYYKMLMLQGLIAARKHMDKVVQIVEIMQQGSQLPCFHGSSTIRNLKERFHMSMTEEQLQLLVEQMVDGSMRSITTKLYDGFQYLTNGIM
Serine/threonine-protein kinase PAK 4 (Homo sapiens), sequence (O96013 whole entry, looked up): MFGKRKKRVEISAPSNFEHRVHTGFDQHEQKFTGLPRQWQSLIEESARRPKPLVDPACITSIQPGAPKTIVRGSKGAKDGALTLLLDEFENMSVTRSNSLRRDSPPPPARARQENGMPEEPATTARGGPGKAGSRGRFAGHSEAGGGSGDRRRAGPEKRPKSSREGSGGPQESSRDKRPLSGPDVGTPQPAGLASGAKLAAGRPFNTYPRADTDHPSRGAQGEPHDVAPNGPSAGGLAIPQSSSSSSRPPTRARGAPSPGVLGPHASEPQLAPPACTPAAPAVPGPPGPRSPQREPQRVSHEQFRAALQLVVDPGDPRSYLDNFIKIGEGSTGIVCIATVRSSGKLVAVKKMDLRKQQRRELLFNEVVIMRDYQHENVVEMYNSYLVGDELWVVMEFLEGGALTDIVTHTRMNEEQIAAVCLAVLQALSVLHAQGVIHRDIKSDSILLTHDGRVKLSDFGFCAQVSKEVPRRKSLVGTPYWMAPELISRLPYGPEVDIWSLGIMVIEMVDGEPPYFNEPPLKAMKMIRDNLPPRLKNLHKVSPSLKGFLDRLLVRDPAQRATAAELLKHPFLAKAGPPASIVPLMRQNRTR

**Q.** How did the residual activity [1] turn out when `CC1=C(C#N)C(c2ccc3c(c2)c(NC(=O)c2ccccc2C)nn3C)C(C#N)=C(C)N1` [BAY-974] was run?
**A.** 88%

**Q.** What about the residual activity [2] of the same compound?
**A.** 30%

**Q.** And the residual activity [3]?
**A.** 77%

**Q.** What about the residual activity [4] of the same compound?
**A.** 100%

**Q.** What about the residual activity [5] of the same compound?
**A.** 100%

**Q.** And the residual activity [6]?
**A.** 82%

**Q.** And the residual activity [7]?
**A.** 100%

**Q.** What about the residual activity [8] of the same compound?
**A.** 100%

**Q.** What about the residual activity [9] of the same compound?
**A.** 27%

**Q.** And the residual activity [10]?
**A.** 79%

**Q.** And the residual activity [11]?
**A.** 76%

**Q.** What about the residual activity [12] of the same compound?
**A.** 100%

**Q.** Which results are given for `CCc1ccccc1C(=O)Nc1n[nH]c2c(C)c(F)c(C3C(C#N)=C(C)N(C)C(C)=C3C#N)cc12` [BAY-3827]?
**A.** residual activity [1]: 100%; residual activity [2]: 100%; residual activity [3]: 86%; residual activity [4]: 87%; residual activity [5]: 100%; residual activity [6]: 85%; residual activity [7]: 79%; residual activity [8]: 85%; residual activity [9]: 25%; residual activity [10]: 100%; residual activity [11]: 12%; residual activity [12]: 100%

Reference: ChEMBL document CHEMBL4507319 (2021)
